Measurements taken from patent publication US20130205416A1 (priority 2010, published 2013).
Ends that are not written are not given here.

Test system: A/WSN/33 H1N1 virus
Assay type: cell-based, Influenza A virus

RRKKWLVFFVIYFFR [FP4, RRKKWLVFFVIYFFR] was tested, and the knockdown was 100%.
